Here are results for five compounds from PMC3281519 (Journal of Medicinal Chemistry, 2011).

One data set addresses T1, recombinant human sEH (Homo sapiens, UniProt P34913).
T1 sequence (P34913 1-555): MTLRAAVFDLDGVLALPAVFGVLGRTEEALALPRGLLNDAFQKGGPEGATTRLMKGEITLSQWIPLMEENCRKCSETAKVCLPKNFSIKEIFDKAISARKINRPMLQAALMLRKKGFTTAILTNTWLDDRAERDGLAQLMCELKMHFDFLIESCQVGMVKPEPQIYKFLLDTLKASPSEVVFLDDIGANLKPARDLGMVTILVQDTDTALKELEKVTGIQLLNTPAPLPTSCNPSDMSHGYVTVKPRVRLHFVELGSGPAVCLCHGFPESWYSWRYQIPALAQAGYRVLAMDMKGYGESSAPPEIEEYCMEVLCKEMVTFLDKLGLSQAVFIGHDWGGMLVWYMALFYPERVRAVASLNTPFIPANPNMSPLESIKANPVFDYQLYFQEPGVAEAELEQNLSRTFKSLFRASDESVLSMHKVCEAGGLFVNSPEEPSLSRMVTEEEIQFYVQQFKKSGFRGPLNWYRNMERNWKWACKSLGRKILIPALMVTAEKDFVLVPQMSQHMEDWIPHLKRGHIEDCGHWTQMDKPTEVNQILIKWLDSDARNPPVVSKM
Put plainly: sEH IC50 kinetic fluorescent assay. The class given is biochemical.

Data set [1] is described as follows: Pharmacokinetic screening by oral cassette dosing in mice. The following applies: mouse; compared to 21i and 21j. The class given is in vivo.
Another data set addresses T2, human recombinant COX-2 (Homo sapiens, UniProt P35354).
T2 sequence (P35354 18-604): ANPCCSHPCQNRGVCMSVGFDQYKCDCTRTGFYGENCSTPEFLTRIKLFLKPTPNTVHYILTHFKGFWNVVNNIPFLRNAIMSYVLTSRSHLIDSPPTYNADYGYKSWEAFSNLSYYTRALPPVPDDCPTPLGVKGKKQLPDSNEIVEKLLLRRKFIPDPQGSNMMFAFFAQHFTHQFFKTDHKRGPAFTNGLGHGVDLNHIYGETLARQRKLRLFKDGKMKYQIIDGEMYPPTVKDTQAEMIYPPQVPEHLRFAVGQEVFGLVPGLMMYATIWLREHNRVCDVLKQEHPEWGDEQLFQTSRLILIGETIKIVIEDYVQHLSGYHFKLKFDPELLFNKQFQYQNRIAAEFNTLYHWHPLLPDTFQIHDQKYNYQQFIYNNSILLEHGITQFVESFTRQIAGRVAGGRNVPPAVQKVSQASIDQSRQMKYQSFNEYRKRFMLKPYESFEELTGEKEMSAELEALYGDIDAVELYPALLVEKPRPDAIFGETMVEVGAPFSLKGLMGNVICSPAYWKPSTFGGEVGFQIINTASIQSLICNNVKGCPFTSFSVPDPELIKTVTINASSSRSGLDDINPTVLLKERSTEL
Put plainly: COX Fluorescent Inhibitor Screening Assay, COX-2. The following applies: compared to compound 21b.

A further data set relates to U937 cell line. Briefly: Acute toxicity on U937 cell line. The class given is cell-based. The following applies: U937 cells.
Data set [2] in a line: Pharmacokinetics after oral administration in rats. The class given is in vivo. The following applies: rat; compared with 21j.
The next data set deals with Sprague-Dawley rats. It is filed as in vivo. The settings on record: rats treated at 10 mg/kg s.c., observed over nine hours.

Structures are written as SMILES.

Take `CS(=O)(=O)c1ccc(-n2nc(CNC(=O)NC3CCCCCC3)cc2-c2ccccc2)cc1` [Compound 11b, 1-Cycloheptyl-3-[1-(4-methanesulfonyl-phenyl)-5-phenyl-1H-pyrazol-3-ylmethyl]-urea]: on recombinant human sEH (compared with compound 11a), the “improvement of sEH inhibition” value worked out at 10 fold.
Consider `NS(=O)(=O)c1ccc(-n2nc(CCNC(=O)Nc3cccc(C(F)(F)F)c3)cc2-c2ccccc2)cc1` [Compound 15, 4-(5-Phenyl-3-{2-[3-(3-trifluoromethyl-phenyl)-ureido]-ethyl}-pyrazol-1-yl)-benzenesulfonamide], for which the “improvement of sEH inhibition” value at recombinant human sEH (compared to compound 11g) is given as 3 fold.
On to `NS(=O)(=O)c1ccc(-n2nc(CCCNC(=O)Nc3cccc(C(F)(F)F)c3)cc2-c2ccccc2)cc1` [Compound 21b, 4-(5-Phenyl-3-{3-[3-(3-trifluoromethyl-phenyl)-ureido]-propyl}-pyrazol-1-yl)-benzenesulfonamide], for which, in data set [1], the “decrease in AUC” value is 8 fold and the “lower Cmax” value was determined as 15 fold. Also, the “improvement of sEH inhibition” value at recombinant human sEH (compared to compound 11g) is 20 fold.
In the case of `Cc1ccc(-c2cc(CCCNC(=O)Nc3cccc(C(F)(F)F)c3)nn2-c2ccc(S(N)(=O)=O)cc2)cc1` [Compound 21c], the “diminished COX-2 activity” value on human recombinant COX-2 was found to be 3 fold. Also, the “diminished sEH activity” value on recombinant human sEH (compared to compound 21b) is given as 3 fold.
`NS(=O)(=O)c1ccc(-n2nc(CCCNC(=O)Nc3ccc(C(F)(F)F)cc3)cc2-c2ccccc2)cc1` [Compound 21i, 4-(5-Phenyl-3-{3-[3-(4-trifluoromethyl-phenyl)-ureido]-propyl}-pyrazol-1-yl)-benzenesulfonamide]: the “acute toxicity on U937 cell line” value in the data set with U937 cell line was “did not observe any acute toxicity”. In data set [2], the “higher Cmax” value is on record as 2 fold. In addition, the “overt signs of behavioral changes or acute toxicity” value in the data set with Sprague-Dawley rats is “no overt signs of any behavioral changes or acute observable symptoms of toxicity”.
